A word on the viability: it is the share of living cells, or the viability signal relative to a control.

Molecules are shown by their SMILES.

Data on one compound can be found in patent publication US7745465B2, “Method of enhancing cellular production of molecular chaperone, hydroxylamine derivatives useful for enhancing the chaperone production and the preparation thereof” (CytRx Corporation, priority 1995, dated 2010).

The test system of data set [1] is WEHI mouse fibrosarcoma cell. Put plainly: Serum deprivation, cell viability by MTT test (WEHI). The class given is cell-based. To be noted: serum deprived WEHI, 10^−5 M, control 100%, serum deprived alone 74.8%, read-out: relative cell viability. On the procedure:
Experiments were carried out using WEH1 mouse fibrosarcoma and H9c2 rat heart muscle cell lines divided into three groups: • control (10% FCS fetal calf serum) • serum deprived • N-[2-hydroxy-3-(1-piperidinyl)propoxy]-3-pyridinecarboximidoyl chloride maleate (10^−5 M) treated and serum deprived 1.2(i) Serum Deprivation and MTT Test
We have screened various cell lines, drug concentrations, pretreatment and deprivation times and we have found the most appropriate conditions as follows: […] H9c2 rat heart muscle cell (n=6) and WEHI mouse fibrosarcoma cell (n=7) have been plated on 24 well plates in 10% FCS DMEM (Dulbecco modified Eagle's medium) and incubated for 2 hours at 37 C, 5% CO2. Medium has been discarded and replaced by 10% FCS DMEM containing 10^−5 M N-[2-hydroxy-3-(1-piperidinyl)propoxy ]-3-pyridinecarboximidoyl chloride maleate. […] Cell viability was measured by MTT test based on the method of Plumb et al. (Cancer Res. 49: 4435-4444 (1989)) The tetrazolium salt method involving conversion of MTT (3-(4,5-dimethylthiazol-2yl)-2,5-diphenyltetrazolium bromide) to colored formazan by alive cells, served as an indirect measurement of cell viability. […] O.D. of the plates was read at 570 nm on an ELISA plate reader (Labsystems Multiskan Biochromatic type:348). […] Relative cell viability was calculated defining control group as 100%.
On the technique in general: Tetrazolium dyes change colour on reduction, which living cells bring about.

Another data set concerns AP-1. Put plainly: AP-1 transcription factor activity in yeast cells. The class given is cell-based. An excerpt: (§1) It was also investigated if the activity of AP-1 and P 1 transcription factors can be modulated by N-[2-hydroxy-3-(1-piperidinyl)propoxy]-3-piridinecarboximidoyl chloride maleate in yeast cells exposed to various stress conditions.
In the next data set the test system is P 1. The experiment in a line: P1 transcription factor activity in yeast cells. Type of data set: cell-based. To be noted: minimal medium.
Description: as §1

Another data set deals with K562 cells. Put plainly: Sensitivity of K562 cells to lysis mediated by NK cells. The class given is cell-based, human. As to conditions: heat shock plus treatment.
For the next data set, the system named is yeast cells. The experiment in a line: Proliferation of yeast cells. Type of data set: cell-based.
For data set [2], the system named is isolated working rat hearts. Put plainly: Isolated working rat hearts, 10-min. coronary occlusion and 3-min. reperfusion. To be noted: for cardioprotection after pretreatment: 20 mg/kg. The protocol:
After a 10-min. aerobic working perfusion, hearts (n=10 in each group) were subjected to a 10-min. coronary occlusion followed by a 3-min. reperfusion in the presence of 0.05, 0.5, 5.0, 20.0, and 50 mg/L N-[2-hydroxy-3-(1-piperidinyl)propoxy]-3-pyridine carboximidoyl chloride maleate, respectively.
After excision of the hearts, they were subjected to the coronary occlusion protocol detailed above while perfused in presence/absence of 20 mg/l N-[2-hydroxy-3-(1-piperidinyl)propoxy]-3-piridinecarboximidoyl chloride maleate.

For another data set, the system named is hsp72. Put plainly: HgCl2 stress induced hsp72 level in U-937 cells. Type of data set: cell-based, human. As to conditions: 10^−5 M, 0.5 μg/ml HgCl2, 6 hours. On the procedure:
From the applied cells the 3T3 and L-929 mouse fibroblasts were cultured in MEM medium and grew in monolayer, the U-937 human leukemia cells were maintained in RPMI-1640 medium, in suspension culture, while the HeLa human epithelial cells were cultured in DMEM medium and in monolayer form. Cell cultures were maintained as described in example 6.2 (a) with the difference that cells were cultured in the above mentioned culture mediums.
Experiments were carried out applying stress before and after the drug treatment. Stress was provoked by heat, by chemical agent, HgCl2 treatment. The test compounds were applied in the treatments at the 10^−5 M concentration.
These experiments were performed on HeLa, human epithelial and U-937, human leukemia cells using HgCl2 to induce stress response. Drug treatment was carried out before cells were exposed to the stress. Test cultures were prepared and treatments were performed as in the experiments with the 3T3 cells. After the drug treatment cells were incubated at 37° C. for 15 min. than all the cultures except two (non stressed control) were exposed to 0.5 μg/ml concentration of HgCl2 and the incubation was followed. The induced amount of hsp72 was measured 6 hours after the exposure to stress.

On to `O=C(O)/C=C\C(=O)O.OC(CON=C(Cl)c1cccnc1)CN1CCCCC1` (stereo not shown) [N-[2-hydroxy-3-(1-piperidinyl)-propoxy]3-pyridinecarboximidoyl chloride maleate], for which, in data set [1], the viability at 10 µM came out at 93%. Further, the “activity of AP-1” value with AP-1 (rich medium) is listed as “decrease the activity of the factor”; in the data set on AP-1 (supply of nutrients inadequate), “increases the activity of AP-1”. In the data set on P 1, the “activity of P 1” value is listed as “activity decreased”. In addition, the “lisability of K562 cells by NK cells” value in the data set on K562 cells is listed as “synergistic effect on the lisability of K562 cells”. Besides, the proliferative effect entry in the data set on yeast cells is “unexpected proliferative effect”. The cardioprotection after pretreatment result in data set [2] (five hours before isolation of the hearts) was “not observable”; in data set [2] (one hour before isolation of the hearts), “still afforded cardioprotection”. Moreover, the “ischemia-induced deterioration of cardiac function” value in data set [2] (0.05-50 mg/L, bell-shaped, 20 mg/L most pronounced) was “alleviated ischemia-induced deterioration of cardiac function”. Also, the “heart rate before ischemia” value in data set [2] (50 mg/L) was “significant bradycardia”. For the same compound, the “coronary flow (CF)” value in data set [2] (before ischemia, bell-shaped concentration-response) is reported as “increased coronary flow (CF)”. Also, in data set [2] (higher concentrations), the reperfusion-induced ventricular fibrillation result was “dose-dependent antiarrhythmic effect”. In the data set on hsp72, the “increase of the stress induced hsp72 level relative to the stress exposed control” value is listed as “more than 20%”.
